Here are results for 106 compounds from PubChem BioAssay AID1996.

Converted amounts (≈) assume the structure as drawn.

For the data set the following is noted: buffer; pH 7.4; 200.0 µM.
Turning to `COc1cc(NC(=O)N[C@@H](CCSC)C(=O)O)cc(OC)c1`, the solubility (kinetic) (in general, the concentration staying in solution when a stock, usually in DMSO, is diluted into the medium) was > 49.3 µg/mL. With `O=C(COc1cccnc1[N+](=O)[O-])NCc1cccs1` the figure was > 44 µg/mL.

With `Cc1cccc(OCc2nc3ccccc3n2C)c1.Cl`, the solubility (kinetic) is 30.4 µg/mL. For `O=C(CC1CCCC1)N1CCN(S(=O)(=O)c2ccccc2)CC1`, the kinetic solubility was > 50.5 µg/mL. As to `CCS(=O)(=O)Nc1cc2c3c(c1)CCN3C(=O)CC2`, the solubility (kinetic) is > 42.1 µg/mL. With `CCCCNC(=O)CSc1nc(CCC)nc2ccccc12` the figure was 4 µg/mL (≈ 12.6 µM).

`Nc1nc(N)c2c(n1)CCCC2` had a kinetic solubility of 17.6 µg/mL (≈ 107 µM). The value for `O=C(NCc1ccc(F)cc1)c1ccc[nH]1` was > 32.7 µg/mL; that for `Cc1c(C)n(-c2ccccc2)c2ncnc(NCCCN(C)C)c12` was > 48.5 µg/mL; that for `CN1CCC(N(CCc2ccccc2)C(=O)CCC(=O)O)CC1` was > 47.8 µg/mL. With `CS/C(=C\C(=O)c1ccco1)Nc1ccccc1Cl` the figure was 10.4 µg/mL (≈ 35.4 µM); with `Cc1cccc(OCCCC(=O)NC2CCCCC2)c1`, 14.1 µg/mL (≈ 51.2 µM). For the compound `CCCn1c2c(c(=N)c3c1CCC3)CCC2.I`, the solubility (kinetic) is > 51.6 µg/mL. As to `COc1ccc(S(=O)(=O)N2CCOCC2)cc1NC(=O)CN(C)CC(=O)Nc1cccc(F)c1`, the solubility (kinetic) is > 74.2 µg/mL. As to `CCC(C(=O)Nc1cc(C)cc(C)n1)c1ccccc1` (stereo unspecified), the solubility (kinetic) came to 39.3 µg/mL (≈ 146 µM). The value for `S=C(Nc1ccc(Cl)cc1)NC1CCCCC1` was 4.4 µg/mL (≈ 16.4 µM).

For `CCC(C)Nc1nc(-c2ccccn2)nc2ccccc12` (stereo unspecified), the kinetic solubility was > 41.8 µg/mL. Regarding `O=C(Nc1ccc(F)c(Cl)c1)C1CC(=O)n2c(nc3ccccc32)N1` (stereo unspecified), the kinetic solubility worked out at 0.4 µg/mL (≈ 1.11 µM). The value for `COc1c(S(=O)(=O)Nc2cccnc2)ccc(Cl)c1Cl` was 30.8 µg/mL (≈ 92.4 µM); that for `Cc1cc(C)cc(NC(=S)N2CC(C)OC(C)C2)c1` (stereo unspecified) was 35.1 µg/mL (≈ 126 µM); that for `Cc1nc(C(F)(F)F)ccc1C(=O)N1CCCCC1` was 36.5 µg/mL (≈ 134 µM). In turn, `Cc1csc(=O)n1CC(=O)Nc1ccc(C(C)C)cc1` yielded a kinetic solubility of 29.4 µg/mL (≈ 101 µM). Turning to `CC1(C)CC(=O)C=C(Nc2ccc(O)c(C(=O)O)c2)C1`, the kinetic solubility was > 41.3 µg/mL. `CC1CCCC(NC(=O)COC(=O)COc2ccc(C#N)cc2)C1C` (stereo unspecified) displayed a kinetic solubility of 45.4 µg/mL (≈ 132 µM). The value for `C/C(N)=C(/C#N)C(=O)COC(=O)c1cccc(C)c1O` was 1.5 µg/mL (≈ 5.47 µM); that for `Cc1ccoc1C(=O)Nc1ccc2ccccc2c1` was 7.5 µg/mL (≈ 29.8 µM). For the compound `CSCC[C@H](NC(=O)c1ccco1)c1nnc2ccccn12`, the solubility (kinetic) was > 47.5 µg/mL. The value for `Cc1ccc(NC(=O)CC(=O)Nc2ccc(C)c(C)c2)cc1C` was < 0.3 µg/mL; that for `CCC(C)c1ccc(NC(=O)Nc2cccnc2)cc1` (stereo unspecified) was 33.2 µg/mL (≈ 123 µM). In turn, `CC(C)c1ccc(C2NC(=O)c3ccccc3O2)cc1` (stereo unspecified) came in with a solubility (kinetic) of 1 µg/mL (≈ 3.74 µM). For `O=[N+]([O-])c1ccc(Cl)c(S(=O)(=O)n2ccnc2)c1`, the solubility (kinetic) is > 43.2 µg/mL. On to `O=S(=O)(NCCCN1CCOCC1)c1ccc2ccccc2c1`, for which the kinetic solubility is > 50.2 µg/mL.

On to `Cc1ccc(C(=O)NN2CCOCC2)cc1[N+](=O)[O-]`, for which the kinetic solubility is > 39.8 µg/mL. On to `CCOC(=O)CSc1nnc(-c2cccnc2)n1C`, for which the kinetic solubility is > 41.7 µg/mL.

For `O=S(=O)(NC(=S)c1ccccc1)c1ccc(F)cc1`, the kinetic solubility is > 44.3 µg/mL. `COc1ccc(CNc2ccc3c(c2)nc(C)n3C)cc1OC` yielded a kinetic solubility of 37.2 µg/mL (≈ 119 µM). As for `CCc1c(C#N)sc(C(N)=O)c1CC`, the solubility (kinetic) was > 31.2 µg/mL. With `OCCN(Cc1ccccc1)Cc1nc(CC2CC2)no1` the figure was > 43.1 µg/mL. For the compound `CCOC(=O)C1CCCNC1=O` (stereo unspecified), the solubility (kinetic) is > 25.7 µg/mL. Regarding `Cc1nonc1C(=O)N1CCCC(Nc2ccc(C(C)C)cc2)C1` (stereo unspecified), the solubility (kinetic) came to 32.8 µg/mL (≈ 99.9 µM). With `N#C/C(=C\c1ccc2c(c1)OCCO2)C(=O)Nc1nccs1` the figure was 28.8 µg/mL (≈ 91.9 µM); with `COc1ccccc1CC(=O)Nc1ccon1`, > 34.8 µg/mL. On to `CCc1cccc2c(C(=O)COC(=O)[C@@H]3CC(O)CN3S(=O)(=O)c3ccccc3[N+](=O)[O-])c[nH]c12` (stereo partly specified), for which the solubility (kinetic) was determined as 30.6 µg/mL (≈ 61 µM).

With `COCCCn1c(=S)[nH]c(C)c(C)c1=O`, the solubility (kinetic) is > 34.2 µg/mL.

In the case of `CCNC(=S)N1CCCC(c2nc3ccc(C)cc3[nH]2)C1` (stereo unspecified), the solubility (kinetic) was > 45.4 µg/mL. Regarding `COc1ccc(NC(=O)CCSCCc2ccccn2)cc1OC`, the kinetic solubility came out at 49.1 µg/mL (≈ 142 µM). In turn, `CCC(=O)Nc1c(-c2ccccc2)c(=O)c2ccccc2n1C` registered a solubility (kinetic) of 44.9 µg/mL (≈ 147 µM).

`Cc1ccc(OCc2nc(-c3cccs3)no2)c([N+](=O)[O-])c1` had a solubility (kinetic) of 0.9 µg/mL (≈ 2.84 µM). The value for `Cc1ccn2cc(-c3cccc(NC(=O)CCC(=O)O)c3)nc2c1` was > 48.5 µg/mL; that for `CCOc1ccc2nc(NC(=O)c3ccc(C)o3)sc2c1` was 0.6 µg/mL (≈ 1.98 µM).

The compound `COc1cccc(CN2C(=O)c3ccccc3S2(=O)=O)c1` gave a kinetic solubility of 30 µg/mL (≈ 98.9 µM). Regarding `C#CCN1CCN(c2cccc(C(F)(F)F)c2)CC1`, the solubility (kinetic) amounted to 9.8 µg/mL (≈ 36.5 µM). Take `CC(=O)NC12CC3CC(C1)CC(C(=O)OCC(=O)c1cc(C)n(C)c1C)(C3)C2`: the kinetic solubility was determined as 49.5 µg/mL (≈ 128 µM). The value for `Cc1ccc(S(=O)(=O)Nc2ccc(Nc3ccccc3)cc2)cc1` was 2.5 µg/mL (≈ 7.39 µM); that for `COc1ccc(CNC(=O)C(=O)NC2CC(C)(C)NC(C)(C)C2)cc1` was > 52.1 µg/mL. With `CCCOc1ccc(C(CC(=O)O)NC(=O)Cc2ccccc2)cc1` (stereo unspecified) the figure was > 51.2 µg/mL.

Take `CC(C)(C)c1nc(N)nc(=O)[nH]1`: the solubility (kinetic) amounted to 23.9 µg/mL (≈ 142 µM). With `COc1ccccc1NCCC(=O)OCC(=O)Nc1ccccc1F`, the kinetic solubility is > 52 µg/mL.

Consider `Cc1ccc(NC(=O)CNC(=O)c2ccc(C)o2)cc1`, for which the solubility (kinetic) was > 40.8 µg/mL. The value for `COc1ccc(-c2cc3ccccc3[nH]2)cc1` was 1.4 µg/mL (≈ 6.27 µM); that for `O=c1[nH]cnc(O)c1C(c1cccc([N+](=O)[O-])c1)c1c(O)nc[nH]c1=O` was > 53.6 µg/mL. As to `Cc1cnc(NS(=O)(=O)c2ccc(Cl)cc2)c(Br)c1`, the kinetic solubility was > 54.2 µg/mL. The value for `Cl.OC(CNCC#Cc1ccccc1)c1ccccc1` (stereo unspecified) was 35.9 µg/mL; that for `CNC(=O)c1c(NC(=O)c2ccco2)sc(C)c1C` was 11.6 µg/mL (≈ 41.7 µM). In turn, `Cc1cccc(C(=O)OCC(=O)N2CCCCCC2)c1O` returned a solubility (kinetic) of 36 µg/mL (≈ 124 µM). The value for `O=C(CNC(=O)c1ccccc1Cl)NCCc1cccs1` was > 48.4 µg/mL.

The compound `N/C(COc1ccc(Cl)cc1Cl)=N\O` showed a kinetic solubility of 28.8 µg/mL (≈ 123 µM). On to `CCOc1ccc(S(=O)(=O)NCC2CCCO2)c2ccccc12` (stereo unspecified), for which the solubility (kinetic) came to 42.2 µg/mL (≈ 126 µM).

With `CC1CCCN(C(=O)CNS(=O)(=O)c2cccs2)C1` (stereo unspecified), the solubility (kinetic) was > 45.4 µg/mL.

With `COc1ccccc1CN1CCCC(CNC(=O)c2cccc3ccccc23)C1` (stereo unspecified), the kinetic solubility was 49.5 µg/mL (≈ 127 µM).

On to `COC(=O)c1ccsc1NC(=O)CCc1ccccc1`, for which the solubility (kinetic) is 9.6 µg/mL (≈ 33.2 µM). With `O=C(Nc1ccc(Br)cc1)N1CCCC(O)C1` (stereo unspecified), the kinetic solubility is > 44.9 µg/mL.

In the case of `N#C/C(=C\N1CCCCC1)S(=O)(=O)c1ccc(Cl)cc1`, the solubility (kinetic) was 8.2 µg/mL (≈ 26.4 µM). In turn, `Cc1cccc(C(=O)OCC(=O)N2CCc3ccccc3C2)c1O` registered a kinetic solubility of 6.8 µg/mL (≈ 20.9 µM). The value for `O=[N+]([O-])c1cc(O)c(O)c([N+](=O)[O-])c1` was > 30 µg/mL; that for `O=C(NCc1ccccc1)c1c[nH]c2ccccc2c1=O` was 39.3 µg/mL (≈ 141 µM); that for `N#Cc1ccc(OCC(=O)OCC(=O)c2ccccc2)cc1` was > 44.3 µg/mL.

In the case of `O=C(Nc1ccccc1Cc1ccccc1)c1ccccc1F`, the solubility (kinetic) stood at 3.1 µg/mL (≈ 10.2 µM).

Turning to `CCNC(=O)Cc1ccc(S(=O)(=O)N2CCOCC2)s1`, the kinetic solubility was > 47.8 µg/mL. With `Cc1ccc(CNS(=O)(=O)c2cccc3nsnc23)cc1`, the kinetic solubility is > 47.9 µg/mL. The value for `CCN(CC(=O)Nc1ccccc1OC)C(=O)CC1CCCC1` was > 47.8 µg/mL; that for `CN(C)Cc1cccc([N+](=O)[O-])c1O` was > 29.4 µg/mL. The value for `CCOC(=O)c1[nH]cnc1C(=O)Nc1cccc(OC)c1` was 4.4 µg/mL (≈ 15.2 µM); that for `Cc1ccc(S(=O)(=O)NC(=O)Nc2cccc(S(=O)(=O)N(C)C)c2)cc1` was > 59.6 µg/mL; that for `C[C@@H](C(=O)Nc1cccnc1)n1c(=O)[nH]c2ccccc2c1=O` was > 46.5 µg/mL. As for `Cc1ccc(N2CC(C(=O)Nc3ccccc3N3CCCC3)CC2=O)cc1` (stereo unspecified), the solubility (kinetic) was determined as 21.4 µg/mL (≈ 58.9 µM).

Take `CCOc1cc(/C=C2/C(=O)ON=C2C)cc(Br)c1O`: the solubility (kinetic) was > 48.9 µg/mL.

Consider `COCC(=O)N1CCN(c2cccc(Cl)c2)CC1`, for which the solubility (kinetic) was > 40.3 µg/mL. `COc1ccc(CCNS(=O)(=O)c2ccc3c(c2)CCCC3)cc1OC` came in with a kinetic solubility of 28.2 µg/mL (≈ 75.1 µM). For `CC(=O)c1cc(F)ccc1OCC(=O)Nc1ccc2c(c1)OCO2`, the kinetic solubility is 7.8 µg/mL (≈ 23.5 µM). Turning to `O=C(O)c1ccc(-n2cc(C(=O)c3ccccc3O)cn2)cc1`, the kinetic solubility is > 46.2 µg/mL. For the compound `CN(C)c1ccc(C=NCC2COc3ccccc3O2)cc1` (stereo unspecified), the solubility (kinetic) is > 44.5 µg/mL.

As for `COc1cc(C)c(C)cc1S(=O)(=O)N1CCCc2ccccc21`, the solubility (kinetic) came to 4.9 µg/mL (≈ 14.8 µM).

In the case of `CC1(c2ccccc2Cl)NC(=O)N(CC(=O)Nc2ccc(N3CCOCC3)cc2)C1=O` (stereo unspecified), the kinetic solubility was > 66.4 µg/mL.

For `CC1(C)CC(C(N)=S)CCO1` (stereo unspecified), the kinetic solubility worked out at 23.5 µg/mL (≈ 136 µM).

`O=[n+]1cc(-c2ccc(Cl)cc2)n([O-])c2c1CCC2`: the solubility (kinetic) was > 39.4 µg/mL. With `Cc1nc2cc(NCc3cccs3)ccc2n1C` the figure was 31.9 µg/mL (≈ 124 µM). With `CC(C)(Oc1ccc(Cl)cc1)C(=O)NC1CC1`, the solubility (kinetic) is > 38.1 µg/mL. As for `COc1cccc(OCCNC(=O)Nc2cc(F)c(F)cc2Cl)c1`, the kinetic solubility was < 0.4 µg/mL. The value for `O=C(COC(=O)/C=C/c1cccc(Br)c1)NC1CCCC1` was 4.1 µg/mL (≈ 11.6 µM); that for `O=C(NS(=O)(=O)c1ccc(Cl)cc1)c1ccccc1` was 26.7 µg/mL (≈ 90.3 µM). With `Nc1ccc2nc(CCCCCCc3nc4ccc(N)cc4[nH]3)[nH]c2c1` the figure was > 52.3 µg/mL; with `O=C(Nc1nc2ccccc2[nH]1)c1cccc(F)c1`, 6.6 µg/mL (≈ 25.9 µM); with `Cc1ccc(CNC(=S)N(C)C)cc1`, > 31.2 µg/mL. Take `COc1ccc(CCN=Cc2ccc(O)cc2)cc1OC`: the solubility (kinetic) stood at 40.1 µg/mL (≈ 141 µM). For `CN1CCN(c2ccncc2S(=O)(=O)N2CCCCC2)CC1`, the solubility (kinetic) is > 48.7 µg/mL.
